Reference: PubChem BioAssay AID256 (DTP/NCI, 2004)
Toxic doses and inconclusive results are not listed. How the source made its calls: active means survival T/C of 150% or more; inactive means T/C below 125% in these data.

Test system: CD2F1 mice, L1210 leukemia ip, survival T/C
Experiment: NCI In Vivo Anticancer Drug Screen. Data for tumor model L1210 Leukemia (intraperitoneal) in CD2F1 (CDF1) mice
Conditions: endpoint: mean survival time, higher = longer survival
Summary of the method: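 Ratio T/C, where T is the treated-group value and C the vehicle-dosed control value, from mice implanted with a transplantable tumor.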

[1] = dose: 100.0 mg/kg/injection, schedule: Q01DX001 (ip), vehicle: saline
[2] = dose: 200.0 mg/kg/injection, schedule: Q01DX009 (ip), vehicle: Klucel (hydroxypropylcellulose) (HPC)
[3] = dose: 12.5 mg/kg/injection, schedule: Q01DX009 (ip), vehicle: other
[4] = dose: 25.0 mg/kg/injection, schedule: Q01DX009 (ip), vehicle: other
[5] = dose: 50.0 mg/kg/injection, schedule: Q01DX009 (ip), vehicle: other
[6] = dose: 100.0 mg/kg/injection, schedule: Q01DX009 (ip), vehicle: other
[7] = dose: 100.0 mg/kg/injection, schedule: Q04DX002 (ip), vehicle: saline with Tween-80
[8] = dose: 200.0 mg/kg/injection, schedule: Q04DX002 (ip), vehicle: saline with Tween-80
[9] = dose: 400.0 mg/kg/injection, schedule: Q04DX002 (ip), vehicle: saline with Tween-80
[10] = dose: 50.0 mg/kg/injection, schedule: Q01DX009 (ip), vehicle: Klucel (hydroxypropylcellulose) (HPC)
[11] = dose: 100.0 mg/kg/injection, schedule: Q01DX009 (ip), vehicle: Klucel (hydroxypropylcellulose) (HPC)

Measured: T/C

CC12OC3(C)C4C(=O)OC1C1(C)OC4(C)C3C(=O)OC21
inactive: [1] 106 % of control | dose: 100.0 mg/kg/injection, schedule: Q04DX003 (ip), vehicle: saline 100 % of control | dose: 200.0 mg/kg/injection, schedule: Q01DX001 (ip), vehicle: saline 102 % of control | dose: 200.0 mg/kg/injection, schedule: Q04DX003 (ip), vehicle: saline 102 % of control | dose: 400.0 mg/kg/injection, schedule: Q01DX001 (ip), vehicle: saline 100 % of control | dose: 400.0 mg/kg/injection, schedule: Q04DX003 (ip), vehicle: saline 97 % of control

CC(=O)OC1C(O)C(OC(=O)c2ccccc2)C(OC(C)=O)C(OC(C)=O)C1OC(C)=O (centres undefined)
inactive: [2] 91 % of control | dose: 400.0 mg/kg/injection, schedule: Q01DX009 (ip), vehicle: Klucel (hydroxypropylcellulose) (HPC) 88 % of control

Oc1ccc(Br)cc1/C=N/c1nc(-c2ccccc2)cs1.Oc1ccc(Br)cc1/C=N/c1nc(-c2ccccc2)cs1.[Zn]
inactive: dose: 25.0 mg/kg/injection, schedule: Q01DX001 (ip), vehicle: saline 100 % of control | dose: 50.0 mg/kg/injection, schedule: Q01DX001 (ip), vehicle: saline 100 % of control | [1] 100 % of control

CCCCCCCC1SC(=S)NC1=O (centres undefined)
inactive: [3] 95 % of control | [4] 89 % of control | [5] 100 % of control | [6] 91 % of control

O=C(COc1ccc(Cl)cc1Cl)Nc1cccc(Cl)c1
inactive: [7] 101 % of control | [8] 101 % of control | [9] 93 % of control

CCCCOC(=O)c1ccc(OC(=O)NCCC)cc1
inactive: [10] 102 % of control | [11] 108 % of control | [2] 100 % of control

CCOc1ccccc1NC(=O)NC1C(OC(C)=O)OC(COC(C)=O)C(OC(C)=O)C1OC(C)=O (centres undefined)
inactive: [3] 94 % of control | [4] 100 % of control | [5] 94 % of control | [6] 96 % of control | dose: 200.0 mg/kg/injection, schedule: Q01DX009 (ip), vehicle: other 90 % of control

O=C(CNC1=NCCN1)Nc1ccc(NC(=O)c2ccc(C(=O)Nc3ccc(NC(=O)CNC4=NCCN4)cc3)cc2)cc1
inactive: dose: 12.0 mg/kg/injection, schedule: Q01DX Z (ip), vehicle: carboxymethylcellulose (CMC) 102 % of control | dose: 14.0 mg/kg/injection, schedule: Q01DX Z (ip), vehicle: carboxymethylcellulose (CMC) 106 % of control | dose: 16.0 mg/kg/injection, schedule: Q01DX Z (ip), vehicle: carboxymethylcellulose (CMC) 102 % of control | dose: 18.0 mg/kg/injection, schedule: Q01DX Z (ip), vehicle: carboxymethylcellulose (CMC) 106 % of control

Cc1ccc([N+](=O)[O-])cc1NC(=O)N1CCC(C)CC1
inactive: [10] 98 % of control | [11] 96 % of control | [2] 101 % of control

Cc1[nH]c2ccc(-c3ccccc3)cc2c1CC(=O)OC(C)C
inactive: [7] 97 % of control | [8] 117 % of control | [9] 105 % of control

CCOC(=O)C1SCSCC1=O (centres undefined)
inactive: dose: 100.0 mg/kg/injection, schedule: Q01DX009 (ip), vehicle: saline with Tween-80 101 % of control | dose: 200.0 mg/kg/injection, schedule: Q01DX009 (ip), vehicle: saline with Tween-80 101 % of control | dose: 400.0 mg/kg/injection, schedule: Q01DX009 (ip), vehicle: saline with Tween-80 98 % of control

CCN(CC)CCCC(C)NC(c1ccc2c(c1)Sc1ccccc1O2)[P+](=O)O (centres undefined)
inactive: dose: 50.0 mg/kg/injection, schedule: Q04DX002 (ip), vehicle: saline with Tween-80 97 % of control | dose: 100.0 mg/kg/injection, schedule: Q01DX001 (ip), vehicle: saline sonified 95 % of control | [7] 90 % of control | dose: 200.0 mg/kg/injection, schedule: Q01DX001 (ip), vehicle: saline sonified 91 % of control | [8] 97 % of control
